From PMC2650797 (Carcinogenesis, 2009)

Target: T1, Cytochrome P450 (CYP) 1A2 (Homo sapiens, UniProt P05177)
T1 sequence (P05177 2-516): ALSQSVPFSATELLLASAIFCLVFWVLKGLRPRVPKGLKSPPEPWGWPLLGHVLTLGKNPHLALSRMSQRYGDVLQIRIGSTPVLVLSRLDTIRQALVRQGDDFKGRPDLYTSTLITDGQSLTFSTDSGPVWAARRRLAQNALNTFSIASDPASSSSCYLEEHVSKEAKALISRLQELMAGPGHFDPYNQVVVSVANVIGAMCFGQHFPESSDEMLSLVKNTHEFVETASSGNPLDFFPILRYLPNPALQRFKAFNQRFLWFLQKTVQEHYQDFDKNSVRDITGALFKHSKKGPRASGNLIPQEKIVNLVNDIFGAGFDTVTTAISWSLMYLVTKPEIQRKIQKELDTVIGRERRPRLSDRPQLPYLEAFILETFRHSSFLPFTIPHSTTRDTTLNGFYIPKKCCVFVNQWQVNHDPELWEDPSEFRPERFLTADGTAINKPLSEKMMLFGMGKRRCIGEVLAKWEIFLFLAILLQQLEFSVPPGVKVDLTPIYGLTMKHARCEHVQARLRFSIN
Assay: 7-ethoxyresorufin O-deethylase fluorescence inhibition assay
Format: biochemical

IC50 | Compound
~0.2 µM | Cc1c(-c2cnccn2)ssc1=S [OLT, 4-methyl-5-pyrazinyl-3H-1,2-dithiole-3-thione]
~12.8 µM | CC(C)(C)c1cc(=S)ss1 [TBD, 5-tert-butyl-3H-1,2-dithiole-3-thione]
